According to patent US11173195B2, “Immunomodulatory pharmaceutical compositions including a synthetic peptide and transforming growth factor beta” (Enzo Biochem, Inc., priority 2013, dated 2021):
Like-named read-outs stand apart in the source and are kept apart here.

Experiments:
[1] = test system: PBMCs from control subjects without AMD
Experimental: (§1) Accordingly, peripheral blood mononuclear cells of AMD patients were tested to determine whether they would manifest the same type of responses to various synthetic peptides as blood cells from uveitis patients did in an earlier study. See deSmet et al. (2001) Investigative Ophthalmology & Visual Science 42(13):3233-38.
(§2) The cell preparation and assay procedures used in these experiments were essentially as described in DeSmet et al. 2001. In brief, mononuclear lymphocytes were separated on isolymph gradient (Gallard-Schlesinger, Carle Place, N.Y.) from heparinized blood shortly after the sample was obtained. Cells were resuspended in RMPI 1640 with HEPES (Gibco, Grand Island, N.Y.), supplemented with glutamine (2 mM), Penicillin (100 U/ml), streptomycin (100 μg/ml), and 10% commercial heat-inactivated human AB serum (Biocell Laboratories, Carson, Calif.). These cells were immediately placed in culture at a density of 5×10^5 cells/well in the presence of a test peptide at a concentration of 20 μg/ml (or no peptide control), in flat-bottomed, 96-well plates (Costar, Cambridge, Mass.). All assays were plated in triplicate. Peptides were tested simultaneously. For control of immune reactivity, purified protein derivative (PPD; Parke-Davis, Morris Plains, N.J.) and purified phytohemagglutinin (PHA; Murex Diagnostics, Dartford, UK) were also tested. For the last 12 hours before harvesting at day 5, each well was pulsed with [3H]thymidine (2 Ci/mmol, 0.5 μCi per 10 μl/well; New England Nuclear, Boston, Mass.).

[2] = test system: peripheral blood mononuclear cells (PBMCs) from AMD patients; conditions: for immunostimulatory activity on PBMCs: peptide 20 μg/ml
Experimental: as §1, §2

[3] = test system: blood cells from uveitis patients; conditions: previously found (Wildner and Thurau 1994; Thurau et al. 1997); cited from earlier work
[4] = AMD patients with large drusen (late stage)
[5] = early stage AMD patients with small drusen
[6] = patients with wet AMD (advanced AMD with CNV), day 5

| Substance | immunostimulatory activity on PBMCs [2, 4] | immunostimulatory activity on PBMCs [2, 5] | immunostimulatory activity on PBMCs [2, 6] | immunostimulatory in uveitis patients [3] | further results |
| --- | --- | --- | --- | --- | --- |
| GEPIPVTVDVTNNTEKTVKK | – | – | – | – | response from responder T-cells ([1]; healthy individuals): does not elicit a response; response from responder T-cells ([2]; AMD patients, FIG. 1): elicits a response |
| DTNLA SSTII KEGID [Peptide 31] | higher average reactivity than Peptide 23 | most reactive | – | – | – |
| LPLLA NNRER RGIAL [Peptide 29] | higher average reactivity than Peptide 23 | most reactive | – | – | – |
| ALNED LSSWT AADT [Peptide B27PD, reference compound] | varying levels of responses | – | elicit immunoreactive responses | immunostimulatory | – |
| FLGEL TSSEV ATEV [PDS-Ag, reference compound] | varying levels of responses | – | elicit immunoreactive responses | immunostimulatory | – |
| VTVDVTNNTEKTVKK [Peptide 23] | – | – | – | – | immunostimulatory activity on PBMCs ([1]; control subjects without AMD, peptide 20 μg/ml): little if any stimulation; frequency of induced immunostimulatory response ([2]; AMD patients with large drusen, FIG. 3, comparison of the three agents): more frequently induced an immunostimulatory response than PDS-Ag or B27PD |
